{"source": "paper PMC8900659", "about": "(Nature chemical biology, 2021)", "key": {"[1]": {"test_system": "NRAS mutant OCI-AML3 cells", "assay": "pERK Western blot", "settings": "4 h; Palm M 10 μM, ABD957 500 nM, PD901 10 nM"}, "[2]": {"test_system": "KRAS mutant NB-4 cells", "assay": "pERK Western blot", "settings": "4 h; Palm M 10 μM, ABD957 500 nM, PD901 10 nM"}, "[3]": {"test_system": "ABHD17A/B/C", "assay": "targeted MS-ABPP in situ time-course in ONK cells", "format": "cell-based, human", "settings": "1 μM"}, "[4]": {"target": "T1, ABHD10 (Homo sapiens, UniProt Q9NUJ1)", "T1 sequence (Q9NUJ1 53-306)": "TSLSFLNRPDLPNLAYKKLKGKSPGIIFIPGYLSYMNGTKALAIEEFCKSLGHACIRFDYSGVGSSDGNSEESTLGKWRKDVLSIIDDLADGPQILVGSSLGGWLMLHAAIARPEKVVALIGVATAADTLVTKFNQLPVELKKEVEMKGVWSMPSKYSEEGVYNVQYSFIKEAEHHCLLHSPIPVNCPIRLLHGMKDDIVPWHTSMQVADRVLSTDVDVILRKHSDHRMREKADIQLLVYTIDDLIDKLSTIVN", "assay": "in vitro MS-ABPP, OCI-AML3 proteome", "format": "biochemical", "settings": "1 and 10 μM, 30 min, particulate fraction"}, "[5]": {"test_system": "ABHD17s", "assay": "in vitro MS-ABPP, OCI-AML3 proteome", "format": "biochemical, human", "settings": "1 and 10 μM, 30 min, particulate fraction"}, "[6]": {"target": "LYPLA1 (Homo sapiens, UniProt O75608)", "sequence (O75608 whole entry)": "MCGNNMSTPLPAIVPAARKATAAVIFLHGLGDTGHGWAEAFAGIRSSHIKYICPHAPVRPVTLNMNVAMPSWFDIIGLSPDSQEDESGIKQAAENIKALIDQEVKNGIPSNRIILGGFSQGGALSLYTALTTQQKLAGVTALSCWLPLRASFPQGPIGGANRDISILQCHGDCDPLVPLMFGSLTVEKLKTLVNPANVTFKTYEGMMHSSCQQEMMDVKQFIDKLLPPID", "assay": "in vitro MS-ABPP, OCI-AML3 proteome", "format": "biochemical", "settings": "1 and 10 μM, 30 min, particulate fraction"}, "[7]": {"target": "LYPLA2 (Homo sapiens, UniProt O95372)", "sequence (O95372 whole entry)": "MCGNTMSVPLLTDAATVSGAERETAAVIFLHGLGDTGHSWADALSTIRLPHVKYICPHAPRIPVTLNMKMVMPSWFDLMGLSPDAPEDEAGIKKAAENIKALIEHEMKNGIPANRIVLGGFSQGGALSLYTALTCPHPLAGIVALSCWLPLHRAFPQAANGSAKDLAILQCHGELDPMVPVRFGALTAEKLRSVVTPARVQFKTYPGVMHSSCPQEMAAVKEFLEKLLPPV", "assay": "in vitro MS-ABPP, OCI-AML3 proteome", "format": "biochemical", "settings": "1 and 10 μM, 30 min, particulate fraction"}, "[8]": {"test_system": "wild type N-Ras palmitoylation", "assay": "MS-based dynamic palmitoylation profiling in NB-4 cells", "format": "cell-based, human"}, "[9]": {"test_system": "ABHD17-DKO cells", "assay": "pERK Western blot", "format": "cell-based, human", "settings": "OCI-AML3 ABHD17-DKO, 4 h"}, "[10]": {"test_system": "serine hydrolases", "assay": "in situ MS-ABPP in OCI-AML3 cells, global selectivity", "settings": "in situ 2 h; ABD957 500 nM, Palm M 10 μM, HDFP 20 μM"}, "[11]": {"test_system": "dynamically palmitoylated proteins", "assay": "MS-based global dynamic palmitoylation profiling in OCI-AML3 cells", "settings": "Palm M 10 μM, ABD957 500 nM, 1 h chase"}}}
{"compound": "O=C(NOC[C@H](O)CO)c1ccc(F)c(F)c1Nc1ccc(I)cc1F", "note": "[PD901]", "values": [{"measurement": "ERK phosphorylation", "setting": "[1]", "value": "blocked ERK phosphorylation in both cell lines"}, {"measurement": "ERK phosphorylation", "setting": "[2]", "value": "blocked ERK phosphorylation in both cell lines"}]}
{"compound": "C[C@H]1CN(Cc2ccc(C(F)(F)F)cc2N2CCOCC2)CCN1C(=O)n1ccc(S(=O)(=O)N(C)C)n1", "note": "[compound 8]", "values": [{"measurement": "sustained inhibition of ABHD17A/B/C over 72 h", "setting": "[3]", "value": "did not produce sustained inhibition"}, {"measurement": "ABHD10 as off-target", "setting": "[4]", "value": "introducing ABHD10"}]}
{"compound": "CN(C)S(=O)(=O)c1cnn(C(=O)N2CCN(Cc3ccc(Cl)cc3)CC2)c1", "note": "[compound 5]", "values": [{"measurement": "inhibition of ABHD17s", "setting": "[5]", "value": "confirmed inhibition"}, {"measurement": "inhibition of LYPLA1", "setting": "[6]", "value": "inhibition"}, {"measurement": "inhibition of LYPLA2", "setting": "[7]", "value": "inhibition"}]}
{"compound": "CCCCCCCCCC[C@@H]1C(=O)O[C@H]1CCCCS(=O)(=O)CCCN(C)C", "note": "[Palm M, Palmostatin M]", "values": [{"measurement": "sensitivity of dynamic palmitoylation of wild type N-Ras", "setting": "[8]", "value": "fully preserved"}, {"measurement": "ERK phosphorylation", "setting": "[9]", "value": "maintained similar activity"}, {"measurement": "ERK phosphorylation", "setting": "[1]", "value": "substantially blocked"}, {"measurement": "ERK phosphorylation", "setting": "[2]", "value": "but not in KRAS mutant NB-4 cells"}, {"measurement": "global serine hydrolase selectivity in cells", "setting": "[10]", "value": "widespread serine hydrolase inhibition"}, {"measurement": "stabilization of the 22 dynamically palmitoylated proteins", "setting": "[11]", "value": "most of these proteins were stabilized"}]}
